Source: paper PMC10385868 (Viruses, 2023)
Several values for one entry are separate records, joined by “and”; a condition that tells them apart may be missing. Equal entries are not always repeated.

Assays:
A549 = details: African green monkey
[1] = SD, rat
WEEV nsP2 protease = WEEV nsP2 protease (Western equine encephalitis virus, UniProt P13896); format: biochemical
VEEV nsP2 protease = VEEV nsP2 protease (Venezuelan equine encephalitis virus, UniProt P27282); assay: biochemical
CHIKV nsP2 protease = CHIKV nsP2 protease (Chikungunya virus, UniProt Q8JUX6); format: biochemical
Sequence of CHIKV nsP2 protease (Q8JUX6 1004-1327 limits assumed): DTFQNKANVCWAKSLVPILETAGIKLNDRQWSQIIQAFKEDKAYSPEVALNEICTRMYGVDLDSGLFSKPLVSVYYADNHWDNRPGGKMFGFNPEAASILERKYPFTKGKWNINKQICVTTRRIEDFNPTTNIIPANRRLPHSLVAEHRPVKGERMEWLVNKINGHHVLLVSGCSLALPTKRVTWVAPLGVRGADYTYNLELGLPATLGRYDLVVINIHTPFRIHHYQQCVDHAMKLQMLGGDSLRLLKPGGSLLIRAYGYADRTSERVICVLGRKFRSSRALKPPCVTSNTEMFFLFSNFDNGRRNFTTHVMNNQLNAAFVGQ

Sequence of VEEV nsP2 protease (P27282 1003-1322 limits assumed): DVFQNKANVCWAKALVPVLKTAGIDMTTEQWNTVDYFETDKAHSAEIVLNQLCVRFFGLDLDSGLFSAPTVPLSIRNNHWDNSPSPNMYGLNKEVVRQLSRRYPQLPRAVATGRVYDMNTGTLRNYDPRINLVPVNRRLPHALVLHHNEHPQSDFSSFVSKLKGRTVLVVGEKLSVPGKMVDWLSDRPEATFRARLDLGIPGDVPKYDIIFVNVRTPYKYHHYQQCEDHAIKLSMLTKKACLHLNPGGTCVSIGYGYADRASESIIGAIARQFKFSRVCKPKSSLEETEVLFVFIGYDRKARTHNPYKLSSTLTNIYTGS
Sequence of WEEV nsP2 protease (P13896 1001-1320 limits assumed): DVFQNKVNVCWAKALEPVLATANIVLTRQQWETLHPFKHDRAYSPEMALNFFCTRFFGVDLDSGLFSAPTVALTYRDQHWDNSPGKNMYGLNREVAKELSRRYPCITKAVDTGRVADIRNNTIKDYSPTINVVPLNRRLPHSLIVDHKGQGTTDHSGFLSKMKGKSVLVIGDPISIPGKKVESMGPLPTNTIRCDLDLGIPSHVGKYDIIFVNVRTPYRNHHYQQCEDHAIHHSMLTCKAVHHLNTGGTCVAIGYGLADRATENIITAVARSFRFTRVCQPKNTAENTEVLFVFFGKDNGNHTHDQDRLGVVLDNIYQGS

SMILES: CCCNC(=O)[C@H]1O[C@@H]1C(=O)N[C@H](C(=O)N1CCC[C@H]1C(=O)O)[C@@H](C)CC [CA074]
- CC50 (A549): > 100 µM
- Microsomal Stability t1/2 [1]: >30 min
- Rat_SD/Microsomes t1/2 [1]: >30 m
- inhibition of WEEV nsP2 protease (WEEV nsP2 protease): inhibited
- PAMPA: <1 ×10⁻⁶ cm/s
- Permeability (PAMPA_Pion_Lipid) (PAMPA): <1 ×10⁻⁶ cm/s
- enhancement of inhibitor binding by Mg^2+ and Mn^2+ (VEEV nsP2 protease): 3 to 6 fold
- k2/Ki (VEEV nsP2 protease; 50 mm hepes, pH 7): 3.3 ± 3.3 M⁻¹ s⁻¹
- Ki (VEEV nsP2 protease; Ki): 1200 µM and 410 µM and 210 µM and 2000 µM
- kinact/KI (VEEV nsP2 protease; pH 7, read-out: k2/Ki): 3.33 M⁻¹ s⁻¹
- inhibition of CHIKV nsP2 protease (CHIKV nsP2 protease): inhibited
